Test results from ChEMBL document CHEMBL3108668, “Antitumor activity of jujuboside B and the underlying mechanism via induction of apoptosis and autophagy” (J Nat Prod, 2014).
Active and inactive are the calls of the source. The calls are words filed in the database; no cut-off is given here.

Columns and labels:
HCT-116 [1] = assay: Induction of autophagy in human HCT116 cells assessed as massive vacuole formation at 50 uM after 24 hrs by acridine orange staining-based fluorescence microscopy; type: functional, cell-based
AGS [2] = assay: Cell cycle arrest in human AGS cells assessed as accumulation at sub G1 phase at 200 uM after 24 hrs by propidium iodide staining-based flow cytometry; type: functional
AGS [3] = assay: Induction of apoptosis in human AGS cells assessed as increase in pp38 level at 100 uM after 24 hrs by Western blotting analysis in presence of bafilomycin A1; type: functional, cell-based
AGS [4] = assay: Induction of apoptosis in human AGS cells assessed as membrane blebbing at >100 uM after 24 hrs by acridine orange staining-based microscopy; type: functional, cell-based
HCT-116 [5] = assay: Cell cycle arrest in human HCT116 cells assessed as accumulation at sub G1 phase after 24 hrs by propidium iodide staining-based flow cytometry; type: functional
AGS [6] = assay: Induction of apoptosis in human AGS cells assessed as late apoptotic cells at 100 uM after 24 hrs by annexin V-FITC/propidium iodide staining-based flow cytometry (reference value: 7.3%); type: functional
HCT-116 [7] = assay: Induction of apoptosis in human HCT116 cells assessed as necrotic cells at 100 uM after 24 hrs by annexin V-FITC/propidium iodide staining-based flow cytometry (reference value: 0.68%); type: functional
AGS [8] = assay: Induction of apoptosis in human AGS cells assessed as caspase-3 activation after 24 hrs by Western blotting analysis; type: functional, cell-based
HCT-116 [9] = assay: Induction of apoptosis in human HCT116 cells assessed as formation of apoptotic bodies at >100 uM after 24 hrs by acridine orange staining-based microscopy; type: functional, cell-based
HCT-116 [10] = assay: Induction of apoptosis in human HCT116 cells assessed as cell rounding at >100 uM after 24 hrs by acridine orange staining-based microscopy; type: functional
[11] = Cytotoxicity against human Chang cells after 24 hrs by MTT assay; type: cell-based
AGS [12] = assay: Induction of apoptosis in human AGS cells assessed as early apoptotic cells at 50 uM after 24 hrs by annexin V-FITC/propidium iodide staining-based flow cytometry (reference value: 6.6%); type: functional
AGS [13] = assay: Induction of apoptosis in human AGS cells assessed as early apoptotic cells at 150 uM after 24 hrs by annexin V-FITC/propidium iodide staining-based flow cytometry (reference value: 6.6%); type: functional
AGS [14] = assay: Induction of apoptosis in human AGS cells assessed as early apoptotic cells at 100 uM after 24 hrs by annexin V-FITC/propidium iodide staining-based flow cytometry (reference value: 6.6%); type: functional
HCT-116 [15] = assay: Induction of apoptosis in human HCT116 cells assessed as early apoptotic cells at 150 uM after 24 hrs by annexin V-FITC/propidium iodide staining-based flow cytometry (reference value: 3.61%); type: functional
HCT-116 [16] = assay: Induction of apoptosis in human HCT116 cells assessed as early apoptotic cells at 100 uM after 24 hrs by annexin V-FITC/propidium iodide staining-based flow cytometry (reference value: 3.61%); type: functional
AGS [17] = assay: Induction of apoptosis in human AGS cells assessed as necrotic cells at 25 uM after 24 hrs by annexin V-FITC/propidium iodide staining-based flow cytometry (reference value: 0.12%); type: functional
HCT-116 [18] = assay: Induction of apoptosis in human HCT116 cells assessed as apoptotic cells after 24 hrs by annexin V-FITC/propidium iodide staining-based flow cytometry; type: functional, cell-based
HCT-116 [19] = assay: Induction of apoptosis in human HCT116 cells assessed as necrotic cells at 25 uM after 24 hrs by annexin V-FITC/propidium iodide staining-based flow cytometry (reference value: 0.68%); type: functional
AGS [20] = assay: Induction of apoptosis in human AGS cells assessed as early apoptotic cells at 25 uM after 24 hrs by annexin V-FITC/propidium iodide staining-based flow cytometry (reference value: 6.6%); type: functional
AGS [21] = assay: Induction of apoptosis in human AGS cells assessed as late apoptotic cells at 150 uM after 24 hrs by annexin V-FITC/propidium iodide staining-based flow cytometry (reference value: 7.3%); type: functional
AGS [22] = assay: Induction of apoptosis in human AGS cells assessed as reduction of caspase3 activation at 100 uM after 24 hrs by Western blotting analysis in presence of SB202190; type: functional, cell-based
AGS [23] = assay: Induction of apoptosis in human AGS cells assessed as reduction of caspase8 activation at 100 uM after 24 hrs by Western blotting analysis in presence of bafilomycin A1; type: functional, cell-based
AGS [24] = assay: Induction of apoptosis in human AGS cells assessed as formation of apoptotic bodies at >100 uM after 24 hrs by acridine orange staining-based microscopy; type: functional, cell-based
HCT-116 [25] = assay: Induction of apoptosis in human HCT116 cells assessed as membrane blebbing at >100 uM after 24 hrs by acridine orange staining-based microscopy; type: functional, cell-based
HCT-116 [26] = assay: Induction of autophagy in human HCT116 cells assessed as massive vacuole formation at 50 uM after 24 hrs by acridine orange staining-based fluorescence microscopy in presence of bafilomycin A1; type: functional, cell-based
AGS [27] = assay: Induction of apoptosis in human AGS cells assessed as increase in FasL level at 100 uM after 24 hrs by Western blotting analysis in presence of bafilomycin A1; type: functional, cell-based
AGS [28] = assay: Induction of apoptosis in human AGS cells assessed as necrotic cells at 50 uM after 24 hrs by annexin V-FITC/propidium iodide staining-based flow cytometry (reference value: 0.12%); type: functional
AGS [29] = assay: Induction of apoptosis in human AGS cells assessed as necrotic cells at 150 uM after 24 hrs by annexin V-FITC/propidium iodide staining-based flow cytometry (reference value: 0.12%); type: functional
HCT-116 [30] = assay: Induction of apoptosis in human HCT116 cells assessed as late apoptotic cells at 25 uM after 24 hrs by annexin V-FITC/propidium iodide staining-based flow cytometry (reference value: 2.71%); type: functional
HCT-116 [31] = assay: Induction of autophagy in human HCT116 cells assessed as massive vacuole formation at 50 uM after 24 hrs by fluorescence microscopy; type: functional, cell-based
HCT-116 [32] = assay: Antitumor activity against human HCT116 cells xenografted in BALB/c nude mouse assessed as reduction of Ki-67 expression at 40 mg/kg, ip administered 3 times a week for 5 weeks by immunohistochemical analysis; type: functional, organism-based; design: dose 40 mg/kg
AGS [33] = assay: Induction of apoptosis in human AGS cells assessed as reduction of caspase3 activation at 100 uM after 24 hrs by Western blotting analysis in presence of bafilomycin A1; type: functional, cell-based
AGS [34] = assay: Cell cycle arrest in human AGS cells assessed as accumulation at sub G1 phase at 100 uM after 24 hrs by propidium iodide staining-based flow cytometry in presence of bafilomycin A1; type: functional
AGS [35] = assay: Induction of apoptosis in human AGS cells assessed as reduction of FasL level at 100 uM after 24 hrs by Western blotting analysis in presence of SP600125; type: functional, cell-based
AGS [36] = assay: Induction of apoptosis in human AGS cells assessed as reduction of caspase8 activation at 100 uM after 24 hrs by Western blotting analysis in presence of SB202190; type: functional, cell-based
HCT-116 [37] = assay: Induction of apoptosis in human HCT116 cells assessed as late apoptotic cells at 50 uM after 24 hrs by annexin V-FITC/propidium iodide staining-based flow cytometry (reference value: 2.71%); type: functional

SMILES: CC(C)=C[C@H]1C[C@](C)(O)[C@@H]2[C@H]3CC[C@@H]4[C@@]5(C)CC[C@H](O[C@@H]6OC[C@H](O)[C@H](O[C@@H]7O[C@H](CO)[C@@H](O)[C@H](O)[C@H]7O[C@@H]7OC[C@@H](O)[C@H](O)[C@H]7O)[C@H]6O[C@@H]6O[C@@H](C)[C@H](O)[C@@H](O)[C@H]6O)C(C)(C)[C@@H]5CC[C@@]4(C)[C@@]34CO[C@@]2(C4)O1
- Activity (HCT-116 [1]): Active
- Activity (AGS [2]): 49.65%
- Activity (AGS [3]): Active
- Activity (AGS [4]): Active
- Activity (HCT-116 [5]): Dose-dependent effect
- Activity (AGS [6]): 12.44%
- Activity (HCT-116 [7]): 3.05%
- Activity (AGS [8]): Dose-dependent effect
- Activity (HCT-116 [9]): Active
- Activity (HCT-116 [10]): Active
- IC50 [11]: 182 µM
- Activity (AGS [12]): 8.73%
- Activity (AGS [13]): 27.43%
- Activity (AGS [14]): 16.41%
- Activity (HCT-116 [15]): 43.39%
- Activity (HCT-116 [16]): 37.59%
- Activity (AGS [17]): 0.55%
- Activity (HCT-116 [18]): Dose-dependent effect
- Activity (HCT-116 [19]): 0.67%
- Activity (AGS [20]): 5.57%
- Activity (AGS [21]): 12.12%
- Activity (AGS [22]): inactive
- Activity (AGS [23]): Active
- Activity (AGS [24]): Active
- Activity (HCT-116 [25]): Active
- Activity (HCT-116 [26]): inactive
- Activity (AGS [27]): Active
- Activity (AGS [28]): 0.53%
- Activity (AGS [29]): 1.57%
- Activity (HCT-116 [30]): 1.67%
- Activity (HCT-116 [31]): Active
- Activity (HCT-116 [32]): Active
- Activity (AGS [33]): Active
- Activity (AGS [34]): Active
- Activity (AGS [35]): inactive
- Activity (AGS [36]): inactive
- Activity (HCT-116 [37]): 2.53%
